According to patent publication US20250281508A1, “CATIONIC STEROIDAL ANTIMICROBIAL SALTS” (BRIGHAM YOUNG UNIVERSITY, priority 2015, published 2025):

Assays:
[1] = Dynamic vapor sorption (DVS) analysis, XRPD before and after; format: physicochemical
Description: FIG. 9 provides an overlay of the XRPD spectrum pre- and post-DVS analysis.

[2] = Coating stability (sluff off) of polyurethane coatings on medical devices immersed in water; format: physicochemical
Protocol: (§1) In a first comparative test, medical devices made from various substrate materials (i.e., stainless steel, titanium, and silicone) were coated with polyurethane coatings containing either di-NDSA salts of CSA compounds (i.e., CSA-13 and/or CSA-131) or HCl acid addition salts of the same CSA compounds, and then tested for long-term stability when immersed in water. Coating stability was determined by measuring how fast the coatings began to sluff off from the medical device. The NDSA salts are di-addition salts.

[3] = Coating stability (sluff off) of silicone coatings on medical devices immersed in water; format: physicochemical
Protocol: as §1, with “second” for “first”, “silicone” for “polyurethane”, “device.” for “device. The NDSA salts are di-addition salts.”

[4] = Rate of elution of CSA from polyurethane coatings immersed in water; format: physicochemical
Description: (§2) In a third comparative test, medical devices made from various substrate materials (i.e., stainless steel, titanium, and silicone) were coated with polyurethane coatings containing either a di-NDSA salt of a representative CSA compound (i.e., CSA-131) or the HCl acid addition salt of the same CSA compound, and then tested to determine the rate of elution of the CSA compound from the coated medical device when immersed in water.

[5] = Rate of elution of CSA from silicone coatings immersed in water; format: physicochemical
Description: as §2, with “fourth” for “third”, “silicone” for “polyurethane”

[6] = Rate of elution of CSA from impregnated PLGA copolymer devices immersed in water; format: physicochemical; conditions: impregnated PLGA copolymer device
Description: In a fifth comparative test, medical devices were made from PLGA copolymer impregnated with either a di-NDSA salt of a representative CSA compound (i.e., CSA-131) or the HCl acid addition salt of the same CSA compound, and then tested to determine the rate of elution of the CSA compound from the medical device when immersed in water.

[7] = Reactivity with ethylene oxide (EtO) in polyurethane coating, by mass spectroscopy; format: physicochemical; conditions: ETT with polyurethane coating sterilized multiple times with EtO
Description: In a seventh comparative test, the elution rate and antibacterial activity of polyurethane coatings containing either the di-NDSA salt of a representative CSA compound (i.e., CSA-131) or the HCl acid addition salt of the same CSA compound following sterilization with ethylene oxide (EtO) were compared, and also the tendency of the acid addition salt of the CSA compound to react with the EtO.
For EtO reactivity with the HCl acid addition salt of CSA-131, the following percentages of CSA-131 and CSA-131-EtO adducts were observed via mass spectroscopy following EtO treatment of a medical device with a polyurethane coating containing the HCl acid addition salt of CSA-131.
(§3) Moreover, elution of CSA-131 from the ETT with the same polyurethane coating containing the di-NDSA of CSA-131 remained relatively consistent for 96 hours, providing continuous activity against biofilms. This is shown by the data in Table 25.

[8] = Elution of CSA-131 from polyurethane coating following EtO sterilization; format: physicochemical; conditions: for % of Total μg on OD: total CSA-131 content on OD 3976 μg; for Eluted Amount in μg/cm^3: total OD surface area 99.4 cm^2; for Average Amount Eluted: ETT polyurethane coating
Protocol: as §3, with “The elution rate of CSA-131 from the same polyurethane coating containing the HCl acid addition salt of CSA-131 (with solution exchange every 24 hours) is shown in Table 24: […] Moreover,” for “Moreover,”

[9] = Solvent solubility test (solvent addition technique); format: physicochemical
Protocol: (§4) Solubility values were estimated by a solvent addition technique, based on the following protocol: CSA-13 (20 mg) was weighed and individually distributed to 24 vials. Each solvent was added to the appropriate vial in 10 aliquots of 10 μL, 5 aliquots of 20 μL, 3 aliquots of 100 μL, and 1 aliquot of 500 μL. If complete dissolution was observed, the additions were stopped. Between additions, the sample was stirred to further encourage dissolution. If […] of solvent was added without dissolution, the solubility was calculated to be below this point. Polarized light microscopy analysis was performed on solids obtained from acetonitrile, 1,4-dioxane, ethyl acetate, isopropanol, and THF.
A solubility screen was performed as described above for the sulphate salt of CSA-13.
as §4, with “CSA-44” for “CSA-13”, “from acetone,” for “from”, “1,4-dioxane, ethanol,” for “1,4-dioxane,”, “acetate,” for “acetate, isopropanol,”, “methanol.” for “THF.”

[10] = Stability of CSA-13 salts: purity under various conditions; format: physicochemical
Protocol: Approximately 300 mg of CSA-13 was weighed into a scintillation vial. 6 mL of tetrohydrofuran was added to the vial. Hydrochloric acid (2 equivalents) was then added to the vial. […] Solids were isolated and dried at ambient temperature prior to analysis.

[11] = polyurethane coating on Silicone
[12] = polyurethane coating on Stainless Steel
[13] = polyurethane coating on Titanium
[14] = silicone coating on Stainless Steel

In the case of `CCCCCCCCCCCCNCCCC(C)C1CCC2C3C(OCCCN)CC4CC(OC(=O)CCN)CCC4(C)C3CC(OCCCN)C12C.O=S(=O)(O)c1cccc2c(S(=O)(=O)O)cccc12.O=S(=O)(O)c1cccc2c(S(=O)(=O)O)cccc12` (stereo not shown) [CSA-131 NDSA], the “Effect of DVS analysis on crystallinity” value ([1]; XRPD after DVS analysis (FIG. 8, 9)) is reported as “did not significantly impact crystallinity”, the DVS hysteresis ([1]; dynamic vapor sorption isotherm (FIG. 7)) is reported as “minimal hysteresis” and the “Sluff Off Time” value [2, 11] is reported as “None after 30+ days”. The “Sluff Off Time” value [2, 12] was “None after 30+ days”, the “Sluff Off Time” value [2, 13] was “None after 30+ days” and the “Sluff Off Time” value ([3]; silicone coating on Silicone) was “None after 30+ days”. For the same molecule, the “Sluff Off Time” value [3, 14] was “None after 30+ days”, the “Sluff Off Time” value ([3]; silicone coating on Titanium) was “None after 30+ days” and the “Time for 50% of CSA to elute” value [4, 11] was over 7 days. The “Time for 50% of CSA to elute” value [4, 12] was over 7 days, the “Time for 50% of CSA to elute” value [4, 13] was over 7 days and the “Time for 50% of CSA to elute” value ([5]; silicone coating on Silicone) was over 7 days. For the same molecule, the “Time for 50% of CSA to elute” value [5, 14] was over 7 days, the “Time for 50% of CSA to elute” value ([5]; silicone coating on Titanium) was over 7 days and the “Time for 50% of CSA to elute” value [6] was over 7 days. The “EtO adducts observed by mass spectroscopy” value [7] was “no EtO adducts were observed”, the “% of Total μg on OD” value ([8]; 0-24 hours) was 2.37% and the “Eluted Amount in μg/cm^3” value ([8]; 0-24 hours) was 0.95 μg/cm^2. The “% of Total μg on OD” value ([8]; 24-48 hours) was 2.14%, the “Eluted Amount in μg/cm^3” value ([8]; 24-48 hours) was 0.85 μg/cm^2 and the “% of Total μg on OD” value ([8]; 48-72 hours) was 1.63%. For the same molecule, the “Eluted Amount in μg/cm^3” value ([8]; 48-72 hours) was 0.65 μg/cm^2, the “% of Total μg on OD” value ([8]; 72-96 hours) was 2.01% and the “Eluted Amount in μg/cm^3” value ([8]; 72-96 hours) was 0.81 μg/cm^2. For the same molecule, the “Average Amount Eluted” value ([8]; Total over 0-96 hours) was 324 µg, the “Average Amount Eluted” value ([8]; time interval 0-24 hours) was 94.3 µg and the “Average Amount Eluted” value ([8]; time interval 24-48 hours) was 84.9 µg. The “Average Amount Eluted” value ([8]; time interval 48-72 hours) was 64.9 µg, the “Average Amount Eluted” value ([8]; time interval 72-96 hours) was 80.1 µg and the “% of Total μg on OD” value ([8]; Total over 0-96 hours) was 8.15%. The “Eluted Amount in μg/cm^3” value ([8]; Total over 0-96 hours) was 3.26 μg/cm^2, the “Solubility in Ethanol” value (ethanol) was under 50 µg/mL and the “Solubility in Water” value (water) was under 20 µg/mL.

In the case of `CCCCCCCCNCCCC(C)C1CCC2C3C(OCCCN)CC4CC(OCCCN)CCC4(C)C3CC(OCCCN)C12C.O=S(=O)(O)O` (stereo not shown) [sulphate salt of CSA-13], the “Approximate Solubility at 22° C.” value ([9]; solvent 1,4-dioxane) is reported as under 11.3 mg/mL, the “Approximate Solubility at 22° C.” value ([9]; solvent 1-butanol) is reported as over 37.7 mg/mL and the “Approximate Solubility at 22° C.” value ([9]; solvent 2-propanol) is reported as over 20.9 mg/mL. The “Approximate Solubility at 22° C.” value ([9]; solvent Acetone) was under 10.5 mg/mL, the “Approximate Solubility at 22° C.” value ([9]; solvent Acetonitrile) was under 10.4 mg/mL and the “Approximate Solubility at 22° C.” value ([9]; solvent Dichloromethane) was over 193.9 mg/mL. The “Approximate Solubility at 22° C.” value ([9]; solvent Ethanol) was over 98.4 mg/mL, the “Approximate Solubility at 22° C.” value ([9]; solvent Methanol) was over 199.7 mg/mL and the “Approximate Solubility at 22° C.” value ([9]; solvent TBME) was under 10.1 mg/mL. The “Approximate Solubility at 22° C.” value ([9]; solvent Tetrahydrofuran) was under 11.0 mg/mL, the “Approximate Solubility at 22° C.” value ([9]; solvent Toluene) was over 102.8 mg/mL and the “Purity (%)” value ([10]; 40° C./75% RH) was 97.50%. For the same molecule, the “Purity (%)” value ([10]; 80° C.) was 97.96%, the “Purity (%)” value ([10]; Ambient light) was 99.76% and the “Purity (%)” value ([10]; Starting Purity) was 99.34%.

With `CCCCCCCCNCCCC(C)C1CCC2C3C(OCCCN)CC4CC(OCCCN)CCC4(C)C3CC(OCCCN)C12C.O=S(=O)(O)c1cccc2c(S(=O)(=O)O)cccc12.O=S(=O)(O)c1cccc2c(S(=O)(=O)O)cccc12` (stereo not shown) [CSA-13 NDSA] the “Purity (%)” value ([10]; 40° C./75% RH) was 97.93%, the “Purity (%)” value ([10]; 80° C.) was 98.16% and the “Purity (%)” value ([10]; Ambient light) was 98.57%. The “Purity (%)” value ([10]; Starting Purity) was 98.52%, the “Sluff Off Time” value [2, 11] was “None after 30+ days” and the “Sluff Off Time” value [2, 12] was “None after 30+ days”. The “Sluff Off Time” value [2, 13] was “None after 30+ days”, the “Sluff Off Time” value ([3]; silicone coating on Silicone) was “None after 30+ days” and the “Sluff Off Time” value [3, 14] was “None after 30+ days”. The “Sluff Off Time” value ([3]; silicone coating on Titanium) was “None after 30+ days”.
